From patent US10214511B2, “Quinazolines as potassium ion channel inhibitors” (Bristol-Myers Squibb Company, priority 2009, dated 2019)
Read-outs that look alike come from different tables or passages of the source.

How the values were obtained:
[1] = molecular target: Kv 1.5 (Homo sapiens (Human), UniProt P22460); experiment: Kv1.5 (IKur) inhibition assay; type: cell-based
Description: Assays to determine the degree of activity of a compound as an IKur inhibitor are well known in the art and are described in references such as J. Gen. Physiol., 101(4):513-543 (April 1993), and Br. J. Pharmacol., 115(2):267-274 (May 1995).
Assays to determine the degree of activity of a compound as an inhibitor of other members of the Kv1 subfamily are also well known in the art. For example, inhibition of Kv1.1, Kv1.2 and Kv1.3 can be measured using procedures described by Grissmer, S. et al., Mol. Pharmacol., 45(6):1227-1234 (June 1994); inhibition of Kv1.4 can be measured using procedures described by Petersen, K. R. et al., Pflugers Arch., 437(3):381-392 (February 1999); inhibition of Kv1.6 can be measured using procedures described by Bowlby, M. R. et al., J. Neurophysiol. 73(6):2221-2229 (June 1995); and inhibition of Kv1.7 can be measured using procedures described by Kalman, K. et al., J. Biol. Chem., 273(10):5851-5857 (Mar. 6, 1998).
Compounds of the present invention were tested in one of the assays described immediately above and the results shown in Table 2 below were obtained.

[2] = molecular target: BTK (Homo sapiens (Human), UniProt Q06187); experiment: Caliper Kinase Assay; type: biochemical; conditions: ATP at Km, peptide 1.5 uM; read-out: LLE_BTK (IC50)
[3] = molecular target: CK2A2 (Homo sapiens (Human), UniProt P19784); experiment: Caliper Kinase Assay; type: biochemical; conditions: ATP at Km, peptide 1.5 uM; read-out: LLE_CK2A2 (IC50)
Chain of CK2A2 (P19784 whole entry, species assumed): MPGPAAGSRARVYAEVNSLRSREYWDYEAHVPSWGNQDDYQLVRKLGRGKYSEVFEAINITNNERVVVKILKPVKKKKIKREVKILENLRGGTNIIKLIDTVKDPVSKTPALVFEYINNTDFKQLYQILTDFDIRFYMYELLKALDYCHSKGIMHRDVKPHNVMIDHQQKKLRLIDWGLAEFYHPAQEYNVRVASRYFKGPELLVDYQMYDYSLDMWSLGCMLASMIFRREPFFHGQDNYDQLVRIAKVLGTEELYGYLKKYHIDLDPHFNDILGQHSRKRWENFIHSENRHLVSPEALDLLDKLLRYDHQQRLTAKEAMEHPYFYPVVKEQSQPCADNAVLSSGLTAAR

[4] = molecular target: IRAK-4 (Homo sapiens (Human), UniProt Q9NWZ3); experiment: Caliper Kinase Assay; type: biochemical; conditions: ATP at Km, peptide 1.5 uM; read-out: LLE IRAK-4 (IC50)
Chain of IRAK-4 (Q9NWZ3 whole entry, species assumed): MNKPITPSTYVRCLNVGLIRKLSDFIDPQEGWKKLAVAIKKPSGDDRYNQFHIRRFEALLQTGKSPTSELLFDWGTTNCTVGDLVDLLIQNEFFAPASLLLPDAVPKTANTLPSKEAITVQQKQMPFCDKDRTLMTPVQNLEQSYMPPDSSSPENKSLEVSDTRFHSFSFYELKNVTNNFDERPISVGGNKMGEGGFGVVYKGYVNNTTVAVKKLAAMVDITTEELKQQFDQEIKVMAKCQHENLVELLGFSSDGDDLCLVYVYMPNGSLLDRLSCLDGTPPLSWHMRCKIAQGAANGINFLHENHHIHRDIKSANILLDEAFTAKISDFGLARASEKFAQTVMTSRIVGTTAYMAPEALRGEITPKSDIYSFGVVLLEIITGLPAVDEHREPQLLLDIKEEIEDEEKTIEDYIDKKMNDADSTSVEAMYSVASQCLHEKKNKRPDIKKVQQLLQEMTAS
Experimental: (§1) In addition, compounds of the present invention, such as particular compounds disclosed in the preceding examples, were evaluated for their effectiveness as inhibitors of kinase receptor activity.
(§2) The analyses were performed in U-bottom 384-well plates. The final assay volume was 30 μl prepared from 15 μl additions of enzyme and substrates (fluoresceinated peptide and ATP) and test compounds in assay buffer (20 mM HEPES pH 7.4, 10 mM MgCl2, 0.015% Brij35 and 4 mM DTT). The reaction was initiated by the combination of purified protein kinase with substrates and test compounds. The reaction was incubated at room temperature for 60 min. and terminated by adding 30 μl of 35 mM EDTA to each sample. The reaction mixture was analyzed on the Caliper LABCHIP® 3000 (Caliper, Hopkinton, Mass.) by electrophoretic separation of the fluorescent substrate and phosphorylated product. Inhibition data were calculated by comparison to no enzyme control reactions for 100% inhibition and vehicle-only reactions for 0% inhibition. The ATP was used at a final concentration equivalent to the Km and the peptide substrate concentration was 1.5 μM. […] Compounds were dissolved at 10 mM in dimethylsulfoxide (DMSO) and evaluated at eleven concentrations. IC50 values were derived by non-linear regression analysis.

[5] = molecular target: GSK3B (Homo sapiens (Human), UniProt P49841); experiment: Caliper Kinase Assay; type: biochemical; conditions: ATP at Km, peptide 1.5 uM; read-out: LLE GSK3B (IC50)
Chain of GSK3B (P49841 whole entry, species assumed): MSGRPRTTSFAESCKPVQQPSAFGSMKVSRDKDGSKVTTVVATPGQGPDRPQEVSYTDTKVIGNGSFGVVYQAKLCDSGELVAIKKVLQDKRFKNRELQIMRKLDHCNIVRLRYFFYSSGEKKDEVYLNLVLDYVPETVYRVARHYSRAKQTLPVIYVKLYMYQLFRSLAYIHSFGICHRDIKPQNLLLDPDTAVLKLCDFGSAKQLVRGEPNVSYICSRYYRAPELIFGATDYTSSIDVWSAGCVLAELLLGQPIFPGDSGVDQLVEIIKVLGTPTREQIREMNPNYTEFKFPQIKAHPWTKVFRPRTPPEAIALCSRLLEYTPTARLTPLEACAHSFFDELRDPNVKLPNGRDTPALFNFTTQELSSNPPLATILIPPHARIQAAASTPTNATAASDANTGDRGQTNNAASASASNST
Experimental: as §1, §2

[6] = molecular target: TPL2 (Homo sapiens (Human), UniProt P41279); experiment: Caliper Kinase Assay; type: biochemical; conditions: ATP at Km, peptide 1.5 uM; read-out: LLE_TPL2 CAL (IC50)
Experimental: as §1, §2

[7] = molecular target: JAK3 (Homo sapiens (Human), UniProt P52333); experiment: Caliper Kinase Assay; type: biochemical; conditions: ATP at Km, peptide 1.5 uM; read-out: LLE_JAK3 (IC50)
[8] = molecular target: PIM1 (Homo sapiens (Human), UniProt P11309); experiment: Caliper Kinase Assay; type: biochemical; conditions: ATP at Km, peptide 1.5 uM
Chain of PIM1 (P11309 whole entry, species assumed): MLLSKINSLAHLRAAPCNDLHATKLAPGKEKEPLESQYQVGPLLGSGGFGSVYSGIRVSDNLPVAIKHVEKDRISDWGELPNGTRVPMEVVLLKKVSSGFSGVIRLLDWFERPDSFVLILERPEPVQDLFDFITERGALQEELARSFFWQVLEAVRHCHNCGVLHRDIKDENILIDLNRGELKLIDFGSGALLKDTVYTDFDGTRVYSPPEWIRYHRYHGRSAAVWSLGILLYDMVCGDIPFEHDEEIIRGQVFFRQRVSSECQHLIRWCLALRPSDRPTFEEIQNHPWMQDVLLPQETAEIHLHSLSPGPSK
Description: (§3) IC50 values were derived by non-linear regression analysis.

[9] = molecular target: ABL1 (Homo sapiens (Human), UniProt P00519); experiment: Caliper Kinase Assay; type: biochemical; conditions: read-out: LLE_ABL1 (% INH, 50 uM)
Description: as §3

[10] = molecular target: JAK2 (Homo sapiens (Human), UniProt O60674); experiment: Caliper Kinase Assay; type: biochemical; conditions: ATP at Km, peptide 1.5 uM; read-out: LLE_JAK2 (IC50)
Chain of JAK2 (O60674 whole entry, species assumed): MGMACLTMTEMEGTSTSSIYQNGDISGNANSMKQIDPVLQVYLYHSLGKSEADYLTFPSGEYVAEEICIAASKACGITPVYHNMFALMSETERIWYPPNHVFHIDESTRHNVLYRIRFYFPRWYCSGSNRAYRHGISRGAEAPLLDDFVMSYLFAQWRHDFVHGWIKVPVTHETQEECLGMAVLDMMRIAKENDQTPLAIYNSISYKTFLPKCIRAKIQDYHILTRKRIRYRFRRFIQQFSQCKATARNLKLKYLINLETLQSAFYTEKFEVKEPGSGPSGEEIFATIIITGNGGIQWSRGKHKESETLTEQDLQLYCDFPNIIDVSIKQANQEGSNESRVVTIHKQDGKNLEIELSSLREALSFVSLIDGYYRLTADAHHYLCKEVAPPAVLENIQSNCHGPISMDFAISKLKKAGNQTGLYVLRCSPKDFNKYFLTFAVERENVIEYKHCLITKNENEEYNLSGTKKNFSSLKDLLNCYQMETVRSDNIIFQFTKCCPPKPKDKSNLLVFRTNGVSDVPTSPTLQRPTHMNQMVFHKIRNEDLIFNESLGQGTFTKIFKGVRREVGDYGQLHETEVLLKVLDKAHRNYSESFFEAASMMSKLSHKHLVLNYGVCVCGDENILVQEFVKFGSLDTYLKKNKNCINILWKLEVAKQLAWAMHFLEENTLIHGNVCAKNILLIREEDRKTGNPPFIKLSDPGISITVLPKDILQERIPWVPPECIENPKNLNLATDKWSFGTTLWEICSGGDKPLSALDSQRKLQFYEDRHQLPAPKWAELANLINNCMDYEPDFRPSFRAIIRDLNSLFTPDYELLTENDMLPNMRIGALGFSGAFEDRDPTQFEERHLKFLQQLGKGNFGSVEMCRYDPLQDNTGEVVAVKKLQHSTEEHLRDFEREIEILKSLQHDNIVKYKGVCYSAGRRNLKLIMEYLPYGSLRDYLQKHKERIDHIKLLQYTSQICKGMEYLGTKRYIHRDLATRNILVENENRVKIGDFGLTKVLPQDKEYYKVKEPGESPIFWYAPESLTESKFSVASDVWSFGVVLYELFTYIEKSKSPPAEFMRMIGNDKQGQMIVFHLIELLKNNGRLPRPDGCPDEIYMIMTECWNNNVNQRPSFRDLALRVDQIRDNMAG
Description: as §3

[11] = molecular target: IGF1R (Homo sapiens (Human), UniProt P08069); experiment: Caliper Kinase Assay; type: biochemical; conditions: ATP at Km, peptide 1.5 uM
Chain of IGF1R (P08069 31-1367, species assumed): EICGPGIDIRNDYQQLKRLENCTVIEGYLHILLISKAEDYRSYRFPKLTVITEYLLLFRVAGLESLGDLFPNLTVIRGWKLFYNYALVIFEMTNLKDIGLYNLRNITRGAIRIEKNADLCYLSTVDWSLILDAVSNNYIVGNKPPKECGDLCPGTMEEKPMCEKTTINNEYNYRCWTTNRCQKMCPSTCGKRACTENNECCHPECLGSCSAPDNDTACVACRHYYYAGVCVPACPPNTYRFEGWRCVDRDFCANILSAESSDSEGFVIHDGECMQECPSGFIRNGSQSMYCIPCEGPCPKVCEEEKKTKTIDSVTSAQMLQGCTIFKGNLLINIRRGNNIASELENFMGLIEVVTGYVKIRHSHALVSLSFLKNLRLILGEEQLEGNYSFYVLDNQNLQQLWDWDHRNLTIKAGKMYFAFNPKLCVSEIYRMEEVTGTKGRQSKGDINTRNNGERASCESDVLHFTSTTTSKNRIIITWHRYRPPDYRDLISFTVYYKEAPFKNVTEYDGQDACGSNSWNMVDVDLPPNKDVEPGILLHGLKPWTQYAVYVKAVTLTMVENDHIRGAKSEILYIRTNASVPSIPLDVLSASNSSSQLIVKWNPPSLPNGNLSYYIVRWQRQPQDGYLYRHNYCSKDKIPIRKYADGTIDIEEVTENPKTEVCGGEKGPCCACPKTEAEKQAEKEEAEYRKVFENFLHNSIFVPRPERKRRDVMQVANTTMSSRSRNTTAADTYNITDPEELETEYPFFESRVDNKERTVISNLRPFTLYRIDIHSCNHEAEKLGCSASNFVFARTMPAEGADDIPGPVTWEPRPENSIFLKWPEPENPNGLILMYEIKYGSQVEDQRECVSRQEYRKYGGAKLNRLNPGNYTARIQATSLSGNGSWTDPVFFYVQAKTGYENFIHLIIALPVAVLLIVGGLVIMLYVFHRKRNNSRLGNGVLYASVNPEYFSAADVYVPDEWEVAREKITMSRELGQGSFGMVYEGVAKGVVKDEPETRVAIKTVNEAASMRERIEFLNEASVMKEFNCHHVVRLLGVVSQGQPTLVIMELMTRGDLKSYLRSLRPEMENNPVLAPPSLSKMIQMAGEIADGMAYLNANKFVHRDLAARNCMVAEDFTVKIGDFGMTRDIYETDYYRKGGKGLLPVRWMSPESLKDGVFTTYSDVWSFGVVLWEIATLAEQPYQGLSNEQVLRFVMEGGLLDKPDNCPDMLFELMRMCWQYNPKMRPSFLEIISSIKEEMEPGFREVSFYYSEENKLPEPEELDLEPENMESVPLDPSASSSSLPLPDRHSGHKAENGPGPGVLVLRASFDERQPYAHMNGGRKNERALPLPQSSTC
Description: as §3

[12] = molecular target: Flt3 (Homo sapiens (Human), UniProt P36888); experiment: Caliper Kinase Assay; type: biochemical; conditions: ATP at Km, peptide 1.5 uM; read-out: LLE Flt3 (IC50)
Description: as §3

[13] = Brain penetration across species; type: in vivo
[14] = molecular target: TAK1 (Homo sapiens (Human), UniProt O43318); experiment: Caliper Kinase Assay; type: biochemical; conditions: ATP at Km, peptide 1.5 uM; read-out: LLE_TAK1 (IC50)
Chain of TAK1 (O43318 1-303): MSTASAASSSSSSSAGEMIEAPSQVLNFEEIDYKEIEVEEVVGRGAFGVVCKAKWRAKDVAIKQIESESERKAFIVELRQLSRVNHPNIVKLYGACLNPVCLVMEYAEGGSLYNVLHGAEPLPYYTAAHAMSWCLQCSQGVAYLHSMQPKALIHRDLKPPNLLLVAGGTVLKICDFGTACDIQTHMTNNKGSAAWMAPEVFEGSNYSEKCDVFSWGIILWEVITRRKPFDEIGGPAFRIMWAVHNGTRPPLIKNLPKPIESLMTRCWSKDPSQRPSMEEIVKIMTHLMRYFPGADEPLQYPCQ
Description: as §3

Chain of Kv 1.5 (P22460 whole entry): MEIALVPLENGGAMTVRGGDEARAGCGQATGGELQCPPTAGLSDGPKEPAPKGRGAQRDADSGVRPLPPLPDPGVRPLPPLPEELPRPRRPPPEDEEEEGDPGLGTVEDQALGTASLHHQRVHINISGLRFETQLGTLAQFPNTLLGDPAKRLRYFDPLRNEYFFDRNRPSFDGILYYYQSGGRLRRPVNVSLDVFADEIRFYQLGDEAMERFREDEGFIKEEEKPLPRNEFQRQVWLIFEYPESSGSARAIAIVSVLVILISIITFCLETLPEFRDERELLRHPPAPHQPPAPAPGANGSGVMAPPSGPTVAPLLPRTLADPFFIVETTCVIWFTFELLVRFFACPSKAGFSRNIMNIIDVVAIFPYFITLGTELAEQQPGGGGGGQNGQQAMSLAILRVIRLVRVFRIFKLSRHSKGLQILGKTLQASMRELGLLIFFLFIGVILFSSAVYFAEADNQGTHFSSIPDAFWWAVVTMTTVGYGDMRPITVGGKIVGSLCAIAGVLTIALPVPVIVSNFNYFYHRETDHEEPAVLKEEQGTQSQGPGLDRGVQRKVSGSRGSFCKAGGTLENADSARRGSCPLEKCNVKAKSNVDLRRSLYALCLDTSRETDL

| inhibition at 0.3 µM [1] | SMILES | also measured |
| --- | --- | --- |
| 98.2% | c1ccc(-c2cccc3nc(-c4ccncc4)nc(NCc4ccccn4)c23)cc1 [Example 31] | – |
| 98.7% | c1ccc(-c2cccc3nc(-c4ccc5cc[nH]c5c4)nc(NCc4ccccn4)c23)cc1 [Example 46] | – |
| 98.7% | COc1ccc(-c2nc(NCc3ccccn3)c3c(-c4ccccc4)cccc3n2)cn1 [Example 105] | – |
| 96.1% | c1ccc(-c2nc(NCc3ccccn3)c3c(-c4ccccc4)cccc3n2)cc1 [Example 50] | – |
| 59.8% | c1ccc(CNc2nc(-c3cncnc3)nc3cccc(-c4ccccc4)c23)cc1 [Example 40] | – |
| 53.1% | Nc1ccc(-c2nc(NCc3ccccn3)c3c(-c4ccccc4)cccc3n2)cn1 [Example 32] | – |
| 50.3% | c1ccc(CNc2nc(-c3cncnc3)nc3cccc(-c4cccc(N5CCOCC5)c4)c23)nc1 [Example 107] | – |
| 65.3% | COc1cncc(-c2nc(NCc3ccccn3)c3c(-c4ccccc4)cccc3n2)c1 [Example 29] | – |
| 61.5% | Fc1ccc(CNc2nc(-c3cncnc3)nc3cccc(-c4ccccc4)c23)nc1 [Example 111] | – |

The next lines start with the molecule.

| SMILES | inhibition at 0.3 µM [1] | also measured |
| --- | --- | --- |
| Fc1ccc(CNc2nc(Cl)nc3cccc(-c4ccccc4)c23)nc1 [Example 110] | 51.8% | – |
| Clc1nc(NCc2ccccn2)c2c(-c3ccccc3)cccc2n1 [Example 19] | – | IC50 [2]: 19.2 µM; IC50 [3]: 25.5 µM; IC50 [4]: 18.7 µM; IC50 [5]: 5.15 µM; IC50 [6]: 11.9 µM; IC50 [7]: 23.8 µM; IC50 ([8]; first section of Table 4, read-out: LLE PIM1 (IC50)): 33.8 µM; IC50 ([8]; third section of Table 4, read-out: LLE_PIM1 (IC50)): 33.8 µM; inhibition at 50 µM [9]: 32.4%; IC50 [10]: 17.8 µM; IC50 ([11]; first section of Table 4, read-out: LLE IGF1R (IC50)): 17.6 µM; IC50 ([11]; second section of Table 4, read-out: LLE_IGF1R (IC50)): 17.6 µM; IC50 [12]: 10.1 µM |
| Cc1nc(NCc2ccccn2)c2c(-c3ccccc3)cccc2n1 [Example 22] | 60.4% | – |
| FC(F)(F)c1ccc(-c2cccc3nc(Cl)nc(NCc4ccccn4)c23)cc1 [Example 97] | 98.7% | – |
| Clc1nc(Nc2nccs2)c2c(-c3ccccc3)cccc2n1 [Example 38] | 61.3% | – |
| COc1cccc(CNc2nc(Cl)nc3cccc(-c4ccccc4)c23)c1 [Example 134] | 98.4% | – |
| FC(F)(F)c1ccccc1CNc1nc(Cl)nc2cccc(-c3ccccc3)c12 [Example 137] | 55.6% | – |
| CC(Nc1nc(Cl)nc2cccc(-c3ccccc3)c12)c1ccccc1 (stereo not drawn) [Example 130] | 96.2% | – |
| NS(=O)(=O)c1cncc(-c2nc(NCc3ccccn3)c3c(-c4ccccc4)cccc3n2)c1 [Example 7, 5-(5-Phenyl-4-(pyridin-2-ylmethylamino)quinazolin-2-yl)pyridine-3-sulfonamide] | 95.7% | brain penetration [13]: surprisingly low degree of brain penetration across species; IC50 [10]: ≥ 50 µM |
| CN(C)c1ccc(-c2cccc3nc(Cl)nc(NCc4ccccn4)c23)cc1 [Example 108] | 98.1% | – |
| c1ccc(-c2cccc3nc(-c4cncnc4)nc(NCc4ccccn4)c23)cc1 [Example 1, 5-Phenyl-N-(pyridin-2-ylmethyl)-2-(pyrimidin-5-yl)quinazolin-4-amine] | – | IC50 [14]: ≥ 50 µM; IC50 [10]: 23.9 µM |
| Clc1nc(NCc2ccccc2)c2c(-c3ccccc3)cccc2n1 [Example 42] | 96.4% | – |
